# Results from ChEMBL document CHEMBL1201862, “PubChem BioAssay data set” (2004).
#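 Interpolation was linear, between the two tested concentrations surrounding the appropriate level; five concentrations were tested over 48 hours in 96-well plates. At the GI50, growth is halved.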 Active and inactive are the calls of the source. Cut-off read from the data, not from the text of the source: active = GI50 up to about 1.1 µM and inactive = higher.
# Columns and labels:
# Test in all cases: NCI tumour cell line growth inhibition, 48 h
# [1] = tested on: 786-0
# [2] = tested on: A498
# [3] = tested on: A549
# [4] = tested on: ACHN
# [5] = tested on: BT-549
# [6] = tested on: CAKI-1
# [7] = tested on: COLO 205
# [8] = tested on: DU-145
# [9] = tested on: EKVX
# [10] = tested on: HCC 2998
# [11] = tested on: HCT-116
# [12] = tested on: HCT-15
# [13] = tested on: HOP-62
# [14] = tested on: HOP-92
# [15] = tested on: HT-29
# [16] = tested on: Hs-578T
# [17] = tested on: IGROV-1
# [18] = tested on: K562
# [19] = tested on: KM12
# [20] = tested on: M14
# [21] = tested on: MCF7
# [22] = tested on: MDA-MB-231
# [23] = tested on: MDA-MB-435
# [24] = tested on: MDA-N
# [25] = tested on: MOLT-4
# [26] = tested on: Malme-3M
# [27] = tested on: NCI-H23
# [28] = tested on: NCI-H460
# [29] = tested on: NCI-H522
# [30] = tested on: NCI/ADR-RES
# [31] = tested on: OVCAR-3
# [32] = tested on: OVCAR-4
# [33] = tested on: OVCAR-5
# [34] = tested on: OVCAR-8
# [35] = tested on: PC-3
# [36] = tested on: RPMI-8226
# [37] = tested on: RXF 393
# [38] = tested on: SF-268
# [39] = tested on: SF-295
# [40] = tested on: SK-MEL-28
# [41] = tested on: SK-MEL-2
# [42] = tested on: SK-MEL-5
# [43] = tested on: SK-OV-3
# [44] = tested on: SNB-19
# [45] = tested on: SNB-75
# [46] = tested on: SR
# [47] = tested on: SW-620
# [48] = tested on: T47D
# [49] = tested on: TK-10
# [50] = tested on: U-251
# [51] = tested on: UACC-257
# [52] = tested on: UACC-62
# [53] = tested on: UO-31
# [54] = tested on: CCRF-CEM
# [55] = tested on: HL-60
# [56] = tested on: LOX IMVI
# [57] = tested on: NCI-H226
# [58] = tested on: SF-539
# [59] = tested on: SN12C
structure (smiles),measurement,setting,value
CO/C(C)=N/CCC1=CCCCC1,GI50,[1],> 100 µM (inactive)
same,GI50,[2],> 100 µM (inactive)
same,GI50,[3],> 100 µM (inactive)
same,GI50,[4],> 100 µM (inactive)
same,GI50,[5],> 100 µM (inactive)
same,GI50,[6],> 100 µM (inactive)
same,GI50,[7],> 100 µM (inactive)
same,GI50,[8],> 100 µM (inactive)
same,GI50,[9],> 100 µM (inactive)
same,GI50,[10],52.5 µM (inactive)
same,GI50,[11],> 100 µM (inactive)
same,GI50,[12],> 100 µM
same,GI50,[13],> 100 µM (inactive)
same,GI50,[14],> 100 µM (inactive)
same,GI50,[15],> 100 µM (inactive)
same,GI50,[16],> 100 µM (inactive)
same,GI50,[17],> 100 µM (inactive)
same,GI50,[18],93.1 µM (inactive)
same,GI50,[19],> 100 µM (inactive)
same,GI50,[20],> 100 µM (inactive)
same,GI50,[21],> 100 µM (inactive)
same,GI50,[22],> 100 µM (inactive)
same,GI50,[23],> 100 µM (inactive)
same,GI50,[24],> 100 µM (inactive)
same,GI50,[25],> 100 µM (inactive)
same,GI50,[26],> 100 µM (inactive)
same,GI50,[27],> 100 µM (inactive)
same,GI50,[28],> 100 µM (inactive)
same,GI50,[29],> 100 µM (inactive)
same,GI50,[30],> 100 µM (inactive)
same,GI50,[31],89.1 µM (inactive)
same,GI50,[32],> 100 µM (inactive)
same,GI50,[33],> 100 µM (inactive)
same,GI50,[34],> 100 µM (inactive)
same,GI50,[35],> 100 µM (inactive)
same,GI50,[36],> 100 µM (inactive)
same,GI50,[37],> 100 µM (inactive)
same,GI50,[38],> 100 µM (inactive)
same,GI50,[39],55.5 µM (inactive)
same,GI50,[40],> 100 µM (inactive)
same,GI50,[41],> 100 µM (inactive)
same,GI50,[42],> 100 µM (inactive)
same,GI50,[43],> 100 µM (inactive)
same,GI50,[44],> 100 µM (inactive)
same,GI50,[45],> 100 µM (inactive)
same,GI50,[46],0.104 µM (active)
same,GI50,[47],> 100 µM (inactive)
same,GI50,[48],> 100 µM (inactive)
same,GI50,[49],> 100 µM (inactive)
same,GI50,[50],> 100 µM (inactive)
same,GI50,[51],> 100 µM (inactive)
same,GI50,[52],> 100 µM (inactive)
same,GI50,[53],> 100 µM (inactive)
Cc1occc1/C(S)=N\c1ccc(Cl)c(COC(C)(C)C)c1,GI50,[1],16.3 µM (inactive)
same,GI50,[2],17.8 µM (inactive)
same,GI50,[3],19.3 µM (inactive)
same,GI50,[4],17.3 µM (inactive)
same,GI50,[5],17.6 µM (inactive)
same,GI50,[6],17.8 µM (inactive)
same,GI50,[54],23.9 µM (inactive)
same,GI50,[7],15.7 µM (inactive)
same,GI50,[8],20.1 µM (inactive)
same,GI50,[9],16.3 µM (inactive)
same,GI50,[10],18.2 µM (inactive)
same,GI50,[11],17.9 µM (inactive)
same,GI50,[12],17.2 µM
same,GI50,[55],19.4 µM (inactive)
same,GI50,[13],18.3 µM (inactive)
same,GI50,[14],15.7 µM (inactive)
same,GI50,[15],15.7 µM (inactive)
same,GI50,[16],20.2 µM (inactive)
same,GI50,[17],15 µM (inactive)
same,GI50,[19],16.7 µM (inactive)
same,GI50,[56],17.3 µM (inactive)
same,GI50,[20],19.1 µM (inactive)
same,GI50,[21],17.1 µM (inactive)
same,GI50,[22],17.1 µM (inactive)
same,GI50,[23],16.7 µM (inactive)
same,GI50,[24],16.1 µM (inactive)
same,GI50,[25],14.4 µM (inactive)
same,GI50,[26],16.5 µM (inactive)
same,GI50,[57],18.1 µM (inactive)
same,GI50,[27],16.4 µM (inactive)
same,GI50,[28],17.2 µM (inactive)
same,GI50,[29],14.5 µM (inactive)
same,GI50,[30],16.1 µM (inactive)
same,GI50,[31],15.1 µM (inactive)
same,GI50,[32],15.3 µM (inactive)
same,GI50,[33],19.4 µM (inactive)
same,GI50,[34],17.7 µM (inactive)
same,GI50,[35],14.5 µM (inactive)
same,GI50,[36],14.2 µM (inactive)
same,GI50,[37],14.9 µM (inactive)
same,GI50,[38],17.9 µM (inactive)
same,GI50,[39],14.8 µM (inactive)
same,GI50,[58],16.8 µM (inactive)
same,GI50,[40],16.5 µM (inactive)
same,GI50,[41],15.8 µM (inactive)
same,GI50,[42],16.2 µM (inactive)
same,GI50,[43],17.1 µM (inactive)
same,GI50,[59],14.4 µM (inactive)
same,GI50,[44],20.9 µM (inactive)
same,GI50,[46],17.6 µM (inactive)
same,GI50,[47],17.5 µM (inactive)
same,GI50,[48],12.1 µM (inactive)
same,GI50,[49],19.4 µM (inactive)
same,GI50,[50],15.6 µM (inactive)
same,GI50,[51],15.7 µM (inactive)
same,GI50,[52],14.6 µM (inactive)
same,GI50,[53],13.1 µM (inactive)
CCCCCC[C@H]1C(=O)O[C@H](C)[C@H](NC(=O)c2cccc(NC=O)c2OC)C(=O)O[C@@H](C)[C@@H]1OC(=O)C(C)CC.CCCCCC[C@H]1C(=O)O[C@H](C)[C@H](NC(=O)c2cccc(NC=O)c2OC)C(=O)O[C@@H](C)[C@@H]1OC(=O)CC(C)C (stereo partly specified),GI50,[1],18.6 µM (inactive)
same,GI50,[2],12.4 µM (inactive)
same,GI50,[3],5.9 µM (inactive)
same,GI50,[4],5.83 µM (inactive)
same,GI50,[5],27 µM (inactive)
same,GI50,[6],12.9 µM (inactive)
same,GI50,[54],6.08 µM (inactive)
same,GI50,[7],7.62 µM (inactive)
same,GI50,[8],15.7 µM (inactive)
same,GI50,[9],7.62 µM (inactive)
same,GI50,[10],89.7 µM (inactive)
same,GI50,[11],10.1 µM (inactive)
same,GI50,[12],14.7 µM
same,GI50,[55],4.53 µM (inactive)
same,GI50,[13],> 100 µM (inactive)
same,GI50,[14],17.5 µM (inactive)
same,GI50,[15],8.59 µM (inactive)
same,GI50,[16],12.1 µM (inactive)
same,GI50,[18],7.85 µM (inactive)
same,GI50,[19],18.8 µM (inactive)
same,GI50,[56],25.9 µM (inactive)
same,GI50,[20],39.7 µM (inactive)
same,GI50,[21],4.88 µM (inactive)
same,GI50,[22],15.8 µM (inactive)
same,GI50,[23],11.6 µM (inactive)
same,GI50,[24],13.2 µM (inactive)
same,GI50,[25],6.65 µM (inactive)
same,GI50,[26],> 100 µM (inactive)
same,GI50,[57],17.6 µM (inactive)
same,GI50,[27],8.49 µM (inactive)
same,GI50,[28],4.83 µM (inactive)
same,GI50,[29],12.2 µM (inactive)
same,GI50,[30],7.59 µM (inactive)
same,GI50,[31],6.71 µM (inactive)
same,GI50,[32],5.41 µM (inactive)
same,GI50,[33],> 100 µM (inactive)
same,GI50,[34],11.6 µM (inactive)
same,GI50,[35],6.28 µM (inactive)
same,GI50,[36],8.57 µM (inactive)
same,GI50,[37],> 100 µM (inactive)
same,GI50,[38],26.1 µM (inactive)
same,GI50,[39],14.5 µM (inactive)
same,GI50,[58],29.3 µM (inactive)
same,GI50,[40],> 100 µM (inactive)
same,GI50,[41],25.6 µM (inactive)
same,GI50,[42],5.15 µM (inactive)
same,GI50,[43],15.3 µM (inactive)
same,GI50,[59],29.6 µM (inactive)
same,GI50,[46],5.82 µM (inactive)
same,GI50,[47],14.5 µM (inactive)
same,GI50,[48],20.8 µM (inactive)
same,GI50,[49],16 µM (inactive)
same,GI50,[50],11.7 µM (inactive)
same,GI50,[51],3.96 µM (inactive)
same,GI50,[52],8.49 µM (inactive)
same,GI50,[53],46.8 µM (inactive)
